These results are taken from ChEMBL document CHEMBL1151065, “Antiproliferative activity of haloosmocenium ions against human and murine cancer cell lines” (Bioorg Med Chem Lett, 1994).

As a reminder, the IC50 is the midpoint of a concentration-inhibition curve. A higher IC50 goes with weaker potency.

For one data set, the system named is COLO 320. Description: Antiproliferative effect against human COLO 320 colon adenocarcinoma cells. It is filed as functional, cell-based.
The next data set has as its system Daudi. Description: Antiproliferative effect against human Daudi Burkitt lymphoma cells. The class given is functional, cell-based.
A further data set has as its system HL-60. As to the kind of experiment: Antiproliferative effect against human HL60 promyelocytic leukemia cells. It is filed as functional, cell-based.
The subject of data set [1] is LX-830 cell line. Description: Antiproliferative effect against mouse LX830 lymphoma cells. The class given is functional, cell-based.
For a further data set, the system named is NIH3T3. As to the kind of experiment: Antiproliferative effect against mouse NIH3T3 embryonic cells. It is filed as functional, cell-based.
The next data set concerns CCRF S-180. As to the kind of experiment: Antiproliferative effect against mouse S180 sarcoma cells. The class given is functional, cell-based.
The subject of data set [2] is U-937. Description: Antiproliferative effect against human U937 histiocytic lymphoma cells. It is filed as functional, cell-based.
For data set [3], the system named is U-937. As to the kind of experiment: Rate of oxygen consumption of human U937 cells (10e7 cells) at 200 uM concentration was determined at 30 degree C. The class given is functional, cell-based.
The nature of data set [4]: Rate of oxidation by the compound at 0.44 mM versus 0.49 mM of reduced cytochrome was determined at 30 degree C.
Data set [5] in a line: Rate of oxidation by the compound at 0.5 mM versus 0.24 mM of NADH was determined.
The test system of data set [6] is LX-830 cell line. As to the kind of experiment: Antiproliferative effect against mouse LX830 lymphoma cells; inactive. It is filed as functional, cell-based.
Data set [7] is described as follows: Redox potential from cyclic voltammogram. The class given is physicochemical.
Data set [8] has as its system U-937. Description: Rate of oxygen consumption of human U937 cells (10e7 cells) at 10 uM concentration was determined at 30degreeC, with control value 14.5. It is filed as functional, cell-based.

Take CISPLATIN [listing 1 of 2 here]: the IC50 in the data set on COLO 320 is 6.6 µM; in the data set on Daudi it was 1.7 µM; in the data set on HL-60, 4.3 µM; in the data set with LX-830 cell line [1] it was 13.2 µM; with NIH3T3 it was 0.3 µM; with CCRF S-180, 0.8 µM. In addition, the half-maximal inhibitory concentration (IC50) in the data set on U-937 [2] was determined as 5.2 µM.
For “osmium(2+) ion bis(cyclopenta-1,3-diene) hexafluoro-phosphanuide iodide [listing 1 of 2 here]”, in the data set on U-937 [3], the Oxygen consumption rate was 10.5 nM/min. The Oxidation rate was 824 nM/min in data set [4] and 8 µM/min in data set [5].
Consider “osmium(2+) ion bis(cyclopenta-1,3-diene) hexafluoro-phosphanuide iodide [listing 2 of 2 here]”, for which the IC50 in the data set on COLO 320 is greater than 200 µM; in the data set with Daudi, 79 µM; with HL-60 it was 75 µM; in the data set on LX-830 cell line [6] it was “Not Active”; with NIH3T3, 87 µM; in the data set with CCRF S-180, 120 µM. The midpoint of inhibition in the data set on U-937 [2], the IC50, lay at 196 µM. Besides, in data set [7], the E0 is on record as 0.46.
In turn, CISPLATIN [listing 2 of 2 here] gave an Oxygen consumption rate in the data set on U-937 [8] of 13.4 nM/min.
